Measurements: US6593326B1, “2,4-diamino pyrimidine compounds having anti-cell proliferative activity” (AstraZeneca AB, priority 1998, dated 2003)
pIC50: −log10 of the molar value.

Tests used:
CDK4/Cyclin D1 = target: T1, CDK4/Cyclin D1 (Homo sapiens, UniProt P11802); assay: CDK4 Inhibition Assay (Scintillation Proximity Assay, GST-Retinoblastoma substrate); assay type: biochemical; conditions: in vitro kinase assay; read-out: CDK4 inhibitory activity IC50
T1 construct: made in house; host or cells: Sf21 insect cells (baculovirus co-infection, pVL1393); the substrate was made in E. coli BL21 (DE3) pLysS
T1 sequence (P11802 whole entry): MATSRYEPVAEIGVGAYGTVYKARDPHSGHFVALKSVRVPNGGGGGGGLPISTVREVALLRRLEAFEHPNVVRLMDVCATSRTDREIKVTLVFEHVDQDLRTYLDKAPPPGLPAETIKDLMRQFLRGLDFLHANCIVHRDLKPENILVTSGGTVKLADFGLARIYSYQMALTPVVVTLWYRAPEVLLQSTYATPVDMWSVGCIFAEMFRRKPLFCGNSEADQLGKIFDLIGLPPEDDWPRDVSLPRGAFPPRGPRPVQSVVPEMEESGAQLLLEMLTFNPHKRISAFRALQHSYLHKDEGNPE
T1 sequence (P24385 whole entry partner): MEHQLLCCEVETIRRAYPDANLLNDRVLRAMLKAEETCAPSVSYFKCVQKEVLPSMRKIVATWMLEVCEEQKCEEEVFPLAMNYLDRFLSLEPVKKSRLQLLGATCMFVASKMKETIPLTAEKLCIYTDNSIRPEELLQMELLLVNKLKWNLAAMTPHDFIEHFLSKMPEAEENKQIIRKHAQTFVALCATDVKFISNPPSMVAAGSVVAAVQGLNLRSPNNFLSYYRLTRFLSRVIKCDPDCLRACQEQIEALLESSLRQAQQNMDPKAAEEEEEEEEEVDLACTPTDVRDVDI
Method: The compounds were tested in an in vitro kinase assay in 96 well format using Scintillation Proximity Assay (SPA-obtained from Amersham) for measuring incorporation of [γ-33-P]-Adenosine Triphosphate into a test substrate (GST-Retinoblastoma). In each well was placed the compound to be tested (diluted in DMSO and water to correct concentrations) and in control wells either p16 as an inhibitor control or DMSO as a positive control.
Approximately 0.5 μl of CDK4/Cyclin D1 partially-purified enzyme (amount dependent on enzyme activity) diluted in 25 μl incubation buffer was added to each well then 20 μl of GST-Rb/ATP/ATP33 mixture (containing 0.5 μg GST-Rb and 0.2 μM ATP and 0.14 μCi [γ-33-P]-Adenosine Triphosphate), and the resulting mixture shaken gently, then incubated at room temperature for 60 minutes. […]
The plates were sealed with Topseal-S plate sealers, left for two hours then spun at 2500 rpm, 1124×g., for 5 minutes. The plates were read on a Topcount for 30 seconds per well. […]
E.coli paste was resuspended in 10 ml/g of NETN buffer (50 mM Tris pH 7.5, 120 mM NaCl, 1 mM EDTA, 0.5% v/v NP-40, 1 mM PMSF, 1 ug/ml leupeptin, 1 ug/ml aprotinin and 1 ug/ml pepstatin) and sonicated for 2×45 seconds per 100 ml homogenate. […] The final product was analysed by Sodium Dodeca Sulfate (SDS) PAGE (Polyacrylamide gel) using 8-16% Tris-Glycine gels (Novex, San Diego, USA). […]

[1] = target: T2, human Focal Adhesion Kinase (FAK) (Homo sapiens, UniProt Q05397); assay: FAK3 Kinase Inhibition Assay; assay type: biochemical; conditions: in vitro enzyme assay; read-out: FAK inhibitory activity IC50
T2 construct: FAK (full length human cDNA described by Andre et al); made in house; host or cells: Sf21 insect cells (baculovirus, pFastbac 1)
T2 sequence (Q05397 whole entry): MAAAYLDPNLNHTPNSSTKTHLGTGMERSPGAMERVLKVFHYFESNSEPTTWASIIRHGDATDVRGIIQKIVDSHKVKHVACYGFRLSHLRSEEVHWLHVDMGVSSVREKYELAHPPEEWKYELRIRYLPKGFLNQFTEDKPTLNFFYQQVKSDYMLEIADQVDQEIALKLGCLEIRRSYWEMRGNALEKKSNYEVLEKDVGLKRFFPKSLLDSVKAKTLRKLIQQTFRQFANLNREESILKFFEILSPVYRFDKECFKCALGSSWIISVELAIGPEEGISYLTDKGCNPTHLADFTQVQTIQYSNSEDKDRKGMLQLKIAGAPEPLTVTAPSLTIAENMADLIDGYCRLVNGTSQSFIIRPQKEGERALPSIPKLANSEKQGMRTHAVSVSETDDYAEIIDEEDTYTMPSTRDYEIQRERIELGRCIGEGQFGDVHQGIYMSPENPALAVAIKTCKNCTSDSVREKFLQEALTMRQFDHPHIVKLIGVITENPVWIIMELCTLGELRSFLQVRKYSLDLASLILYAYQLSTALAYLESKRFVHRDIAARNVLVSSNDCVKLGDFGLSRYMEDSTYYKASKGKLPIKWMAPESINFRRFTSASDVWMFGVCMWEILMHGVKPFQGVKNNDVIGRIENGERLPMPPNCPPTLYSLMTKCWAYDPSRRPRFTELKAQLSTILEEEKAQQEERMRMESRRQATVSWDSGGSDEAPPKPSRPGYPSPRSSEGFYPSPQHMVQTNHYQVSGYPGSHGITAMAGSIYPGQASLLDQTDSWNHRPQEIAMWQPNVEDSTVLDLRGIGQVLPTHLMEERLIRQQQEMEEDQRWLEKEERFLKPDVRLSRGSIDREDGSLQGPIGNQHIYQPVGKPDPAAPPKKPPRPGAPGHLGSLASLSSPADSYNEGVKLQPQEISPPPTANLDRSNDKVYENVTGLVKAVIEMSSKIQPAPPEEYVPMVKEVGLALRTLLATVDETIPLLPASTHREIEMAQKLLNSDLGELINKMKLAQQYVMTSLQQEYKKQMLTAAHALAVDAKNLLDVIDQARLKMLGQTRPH
Source text: FAK3 Kinase Inhibition Assay
This assay determines the ability of a test compound to inhibit tyrosine kinase activity of human Focal Adhesion Kinase (FAK).
DNA encoding FAK is obtained by total gene synthesis (Edwards M, International Biotechnology Lab 5(3), 19-25, 1987) or by cloning. These are then expressed in a suitable expression system to obtain polypeptide with tyrosine kinase activity.
Active FAK protein has been previously expressed in a baculovirus system using a similar N-terminal 6-histidine tag (Protein Expression And Purification, 1996, 7: 12-18). The human FAK cDNA was cloned into the baculovirus transplacement vector, pFastbac 1 (Life Technologies), and the recombinant construct was co-transfected into insect cells (for example Spodoptera frugiperda 21(Sf21)) with viral DNA to prepare recombinant baculovirus (details of the methods for the assembly of recombinant DNA molecules and the preparation and use of recombinant baculovirus can be found in standard texts for example Sambrook et al, 1989, Molecular cloning—A Laboratory Manual, 2nd edition, Cold Spring Harbour Laboratory Press and O'Reilly et al, 1992, Baculovirus Expression Vectors—A Laboratory Manual, W. H. Freeman and Co, New York. Details specific to the use of the pFastbac (‘Bac to Bac’) system are provided in Anderson et al., 1995, FOCUS (Life Technologies Bulletin Magazine), 17, p53.) […]

SMILES | pIC50 (CDK4/Cyclin D1) | pIC50 [1]
CN(C)CC(O)COc1ccc(Nc2ncc(Br)c(Nc3ccccc3)n2)cc1 (racemic) [Example 3, 4-anilino-5-bromo-2-{4-[3-(N,N-dimethyl)amino-2-hydroxypropoxy]anilino}pyrimidine] | 7.15 | –
Cc1ccc(F)c(Nc2nc(Nc3ccc(OCC(O)CN(C)C)cc3)ncc2Br)c1 (stereo not shown) [Example 5, 2-{4-[3-(N,N-Dimethyl)amino-2-hydroxy-propoxy]anilino}-4-(2-fluoro-5-methylanilino)-5-bromo-pyrimidine] | 7.70 | –
CN(C)CC(O)COc1ccc(Nc2ncc([N+](=O)[O-])c(Nc3ccccc3F)n2)cc1 (stereo not shown) [Example 6] | – | 7.49
CC(C)NCCCNc1ccc(Nc2ncc(Br)c(Nc3ccccn3)n2)cc1 [Example 220] | – | 7.15
